Legend:
[1] = target: T1, MERTK (Homo sapiens, UniProt Q12866); assay: KINOMEscan 1 μM, MERTK; format: binding; conditions: 1000 nM; Entrez MERTK; read-out: Percent Control
T1 construct: purchased Eurofins DiscoverX KINOMEscan
Source text: (§1) Supplement cells-12-00287-s001.zip/File S2. KinomeScan data for the CAMKK2 probe and negative control.xlsx, sheet "SGC-CAMKK2-1" | column: Percent Control

[2] = target: T2, CAMK2G (Homo sapiens, UniProt Q13555); assay: KINOMEscan 1 μM, CAMK2G; format: binding; conditions: 1000 nM; Entrez CAMK2G; read-out: Percent Control
T2 construct: purchased Eurofins DiscoverX KINOMEscan
Source text: as §1

[3] = target: T3, KIT(D816V) (Homo sapiens, UniProt P10721, D816V); assay: KINOMEscan 1 μM, KIT(D816V); format: binding; conditions: 1000 nM; Entrez KIT; read-out: Percent Control
T3 construct: purchased Eurofins DiscoverX KINOMEscan
Source text: as §1

[4] = target: T4, CASK (Homo sapiens, UniProt O14936); assay: KINOMEscan 1 μM, CASK; format: binding; conditions: 1000 nM; Entrez CASK; read-out: Percent Control
T4 construct: purchased Eurofins DiscoverX KINOMEscan
Source text: as §1

[5] = target: T5, EPHB6 (Homo sapiens, UniProt O15197); assay: KINOMEscan 1 μM, EPHB6; format: binding; conditions: 1000 nM; Entrez EPHB6; read-out: Percent Control
T5 construct: purchased Eurofins DiscoverX KINOMEscan
Source text: as §1

[6] = target: T6, FLT1 (Homo sapiens, UniProt P17948); assay: KINOMEscan 1 μM, FLT1; format: binding; conditions: 1000 nM; Entrez FLT1; read-out: Percent Control
T6 construct: purchased Eurofins DiscoverX KINOMEscan
Source text: as §1

[7] = target: T7, PFCDPK1(P.falciparum) (Plasmodium falciparum, UniProt P62344); assay: DiscoverX KINOMEscan binding assay at 1 μM, PFCDPK1(P.falciparum); conditions: PFCDPK1(P.falciparum) (CDPK1); Compound Concentration 1000 nM; read-out: Percent Control
T7 construct: purchased Eurofins DiscoverX KINOMEscan
Source text: as §1

[8] = target: T8, DYRK2 (Homo sapiens, UniProt Q92630); assay: KINOMEscan 1 μM, DYRK2; format: binding; conditions: 1000 nM; Entrez DYRK2; read-out: Percent Control
T8 construct: purchased Eurofins DiscoverX KINOMEscan
Source text: as §1

[9] = target: T9, ABL1(F317I)-phosphorylated (Homo sapiens, UniProt P00519, F317I); assay: KINOMEscan 1 μM, ABL1(F317I)-phosphorylated; format: binding; conditions: 1000 nM; Entrez ABL1; read-out: Percent Control
T9 construct: purchased Eurofins DiscoverX KINOMEscan
Source text: as §1

[10] = target: T10, ALK(C1156Y) (Homo sapiens, UniProt Q9UM73, C1156Y); assay: KINOMEscan 1 μM, ALK(C1156Y); format: binding; conditions: 1000 nM; Entrez ALK; read-out: Percent Control
T10 construct: purchased Eurofins DiscoverX KINOMEscan
Source text: as §1

[11] = target: T11, CLK3 (Homo sapiens, UniProt P49761); assay: KINOMEscan 1 μM, CLK3; format: binding; conditions: 1000 nM; Entrez CLK3; read-out: Percent Control
T11 construct: purchased Eurofins DiscoverX KINOMEscan
Source text: as §1

[12] = target: T12, PAK1 (Homo sapiens, UniProt Q13153); assay: KINOMEscan 1 μM, PAK1; format: binding; conditions: 1000 nM; Entrez PAK1; read-out: Percent Control
T12 construct: purchased Eurofins DiscoverX KINOMEscan
Source text: as §1

[13] = target: T13, PDGFRA (Homo sapiens, UniProt P16234); assay: DiscoverX KINOMEscan binding assay at 1 μM, PDGFRA; conditions: Compound Concentration 1000 nM, read-out: Percent Control
T13 construct: purchased Eurofins DiscoverX KINOMEscan
Source text: as §1

[14] = target: T14, PIK3CA(E545A) (Homo sapiens, UniProt P42336, E545A); assay: DiscoverX KINOMEscan binding assay at 1 μM, PIK3CA(E545A); conditions: Compound Concentration 1000 nM, read-out: Percent Control
T14 construct: purchased Eurofins DiscoverX KINOMEscan
Source text: as §1

[15] = target: T15, CDK8 (Homo sapiens, UniProt P49336); assay: KINOMEscan 1 μM, CDK8; format: binding; conditions: 1000 nM; Entrez CDK8; read-out: Percent Control
T15 construct: purchased Eurofins DiscoverX KINOMEscan
Source text: as §1

[16] = target: T16, NEK9 (Homo sapiens, UniProt Q8TD19); assay: KINOMEscan 1 μM, NEK9; format: binding; conditions: 1000 nM; Entrez NEK9; read-out: Percent Control
T16 construct: purchased Eurofins DiscoverX KINOMEscan
Source text: as §1

[17] = target: T17, SGK3 (Homo sapiens, UniProt Q96BR1); assay: DiscoverX KINOMEscan binding assay at 1 μM, SGK3; conditions: Compound Concentration 1000 nM, read-out: Percent Control
T17 construct: purchased Eurofins DiscoverX KINOMEscan
Source text: as §1

[18] = target: T18, STK35 (Homo sapiens, UniProt Q8TDR2); assay: KINOMEscan 1 μM, STK35; format: binding; conditions: 1000 nM; Entrez STK35; read-out: Percent Control
T18 construct: purchased Eurofins DiscoverX KINOMEscan
Source text: as §1

[19] = target: T19, KIT(A829P) (Homo sapiens, UniProt P10721, A829P); assay: KINOMEscan 1 μM, KIT(A829P); format: binding; conditions: 1000 nM; Entrez KIT; read-out: Percent Control
T19 construct: purchased Eurofins DiscoverX KINOMEscan
Source text: as §1

[20] = target: T20, CDK11 (Homo sapiens, UniProt Q9BWU1); assay: KINOMEscan at 1 μM, CDK11; format: binding; conditions: 1000 nM, read-out: Percent Control
T20 construct: purchased Eurofins DiscoverX KINOMEscan
Source text: (§2) Supplement cells-12-00287-s001.zip/File S2. KinomeScan data for the CAMKK2 probe and negative control.xlsx, sheet "SGC-CAMKK2-1N" | column: Percent Control

[21] = target: T21, PCTK2 (Homo sapiens, UniProt Q00537); assay: KINOMEscan at 1 μM, PCTK2; format: binding; conditions: 1000 nM, read-out: Percent Control
T21 construct: purchased Eurofins DiscoverX KINOMEscan
Source text: as §2

[22] = target: T22, YSK4 (Homo sapiens, UniProt Q56UN5); assay: KINOMEscan at 1 μM, YSK4; format: binding; conditions: 1000 nM, read-out: Percent Control
T22 construct: purchased Eurofins DiscoverX KINOMEscan
Source text: as §2

[23] = target: T23, SLK (Homo sapiens, UniProt Q9H2G2); assay: KINOMEscan binding assay at 1 μM, SLK; conditions: Compound Concentration 1000 nM; read-out: Percent Control
T23 construct: purchased Eurofins DiscoverX KINOMEscan
Source text: as §2

[24] = target: T24, MST2 (Homo sapiens, UniProt Q13188); assay: KINOMEscan at 1 μM, MST2; format: binding; conditions: 1000 nM, read-out: Percent Control
T24 construct: purchased Eurofins DiscoverX KINOMEscan
Source text: as §2

[25] = target: T25, SRPK3 (Homo sapiens, UniProt Q9UPE1); assay: KINOMEscan binding assay at 1 μM, SRPK3; conditions: Compound Concentration 1000 nM; read-out: Percent Control
T25 construct: purchased Eurofins DiscoverX KINOMEscan
Source text: as §2

[26] = target: T26, FYN (Homo sapiens, UniProt P06241); assay: KINOMEscan at 1 μM, FYN; format: binding; conditions: 1000 nM, read-out: Percent Control
T26 construct: purchased Eurofins DiscoverX KINOMEscan
Source text: as §2

[27] = target: T27, SNRK (Homo sapiens, UniProt Q9NRH2); assay: KINOMEscan binding assay at 1 μM, SNRK; conditions: Compound Concentration 1000 nM; read-out: Percent Control
T27 construct: purchased Eurofins DiscoverX KINOMEscan
Source text: as §2

[28] = target: T28, PIK3CA(H1047L) (Homo sapiens, UniProt P42336, H1047L); assay: KINOMEscan at 1 μM, PIK3CA(H1047L); format: binding; conditions: 1000 nM, read-out: Percent Control
T28 construct: purchased Eurofins DiscoverX KINOMEscan
Source text: as §2

[29] = target: T29, TIE1 (Homo sapiens, UniProt P35590); assay: KINOMEscan binding assay at 1 μM, TIE1; conditions: Compound Concentration 1000 nM; read-out: Percent Control
T29 construct: purchased Eurofins DiscoverX KINOMEscan
Source text: as §2

[30] = target: T30, PIM3 (Homo sapiens, UniProt Q86V86); assay: KINOMEscan at 1 μM, PIM3; format: binding; conditions: 1000 nM, read-out: Percent Control
T30 construct: purchased Eurofins DiscoverX KINOMEscan
Source text: as §2

[31] = target: T31, ROCK1 (Homo sapiens, UniProt Q13464); assay: KINOMEscan at 1 μM, ROCK1; format: binding; conditions: 1000 nM, read-out: Percent Control
T31 construct: purchased Eurofins DiscoverX KINOMEscan
Source text: as §2

[32] = target: T32, NEK5 (Homo sapiens, UniProt Q6P3R8); assay: KINOMEscan at 1 μM, NEK5; format: binding; conditions: 1000 nM, read-out: Percent Control
T32 construct: purchased Eurofins DiscoverX KINOMEscan
Source text: as §2

[33] = target: T33, CAMK1B (Homo sapiens, UniProt Q6P2M8); assay: KINOMEscan at 1 μM, CAMK1B; format: binding; conditions: 1000 nM, read-out: Percent Control
T33 construct: purchased Eurofins DiscoverX KINOMEscan
Source text: as §2

T7 sequence (P62344 whole entry): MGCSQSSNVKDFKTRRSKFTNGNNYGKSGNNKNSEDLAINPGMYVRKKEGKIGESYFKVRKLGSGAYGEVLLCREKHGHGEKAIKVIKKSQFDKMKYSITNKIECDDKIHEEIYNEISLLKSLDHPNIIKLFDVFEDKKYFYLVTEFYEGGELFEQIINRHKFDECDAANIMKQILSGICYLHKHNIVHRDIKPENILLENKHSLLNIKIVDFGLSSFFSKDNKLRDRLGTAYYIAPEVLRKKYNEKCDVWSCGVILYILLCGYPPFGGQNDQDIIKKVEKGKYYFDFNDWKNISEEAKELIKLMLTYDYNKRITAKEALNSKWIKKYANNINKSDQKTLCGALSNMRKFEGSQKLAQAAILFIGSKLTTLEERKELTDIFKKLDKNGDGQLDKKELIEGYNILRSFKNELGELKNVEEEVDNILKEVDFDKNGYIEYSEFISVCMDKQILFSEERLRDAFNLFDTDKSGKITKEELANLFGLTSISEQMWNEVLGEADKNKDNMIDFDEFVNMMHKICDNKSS
T9 sequence (P00519 whole entry F317I): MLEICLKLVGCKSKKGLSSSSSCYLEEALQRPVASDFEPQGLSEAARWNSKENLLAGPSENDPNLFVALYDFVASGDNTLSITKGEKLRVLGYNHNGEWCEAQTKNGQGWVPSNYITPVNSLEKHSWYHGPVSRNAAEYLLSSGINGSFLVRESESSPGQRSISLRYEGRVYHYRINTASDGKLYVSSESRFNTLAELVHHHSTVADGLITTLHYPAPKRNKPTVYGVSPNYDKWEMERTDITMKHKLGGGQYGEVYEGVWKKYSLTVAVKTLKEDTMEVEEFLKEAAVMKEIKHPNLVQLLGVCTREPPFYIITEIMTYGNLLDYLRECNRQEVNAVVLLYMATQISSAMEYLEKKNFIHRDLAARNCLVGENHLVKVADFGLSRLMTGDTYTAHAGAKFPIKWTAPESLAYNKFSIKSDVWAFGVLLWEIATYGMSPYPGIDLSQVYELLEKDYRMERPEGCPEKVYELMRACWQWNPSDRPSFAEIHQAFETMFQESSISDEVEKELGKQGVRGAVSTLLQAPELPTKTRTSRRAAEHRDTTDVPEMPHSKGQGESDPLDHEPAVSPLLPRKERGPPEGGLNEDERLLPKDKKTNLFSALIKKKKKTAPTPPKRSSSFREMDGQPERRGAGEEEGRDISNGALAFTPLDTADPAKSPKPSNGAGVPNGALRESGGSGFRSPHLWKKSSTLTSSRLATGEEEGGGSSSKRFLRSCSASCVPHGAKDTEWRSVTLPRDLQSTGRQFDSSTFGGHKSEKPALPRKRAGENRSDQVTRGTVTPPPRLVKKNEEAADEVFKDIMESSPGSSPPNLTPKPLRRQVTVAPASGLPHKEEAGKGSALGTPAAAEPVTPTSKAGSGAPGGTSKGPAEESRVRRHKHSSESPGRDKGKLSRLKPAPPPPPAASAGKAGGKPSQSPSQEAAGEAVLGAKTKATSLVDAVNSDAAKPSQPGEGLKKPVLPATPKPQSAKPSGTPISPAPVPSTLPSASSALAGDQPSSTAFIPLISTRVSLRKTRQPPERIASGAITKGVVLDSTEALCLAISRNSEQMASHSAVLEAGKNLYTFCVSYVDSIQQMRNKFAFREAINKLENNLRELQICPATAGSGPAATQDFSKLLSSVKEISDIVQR
T23 sequence (Q9H2G2 whole entry): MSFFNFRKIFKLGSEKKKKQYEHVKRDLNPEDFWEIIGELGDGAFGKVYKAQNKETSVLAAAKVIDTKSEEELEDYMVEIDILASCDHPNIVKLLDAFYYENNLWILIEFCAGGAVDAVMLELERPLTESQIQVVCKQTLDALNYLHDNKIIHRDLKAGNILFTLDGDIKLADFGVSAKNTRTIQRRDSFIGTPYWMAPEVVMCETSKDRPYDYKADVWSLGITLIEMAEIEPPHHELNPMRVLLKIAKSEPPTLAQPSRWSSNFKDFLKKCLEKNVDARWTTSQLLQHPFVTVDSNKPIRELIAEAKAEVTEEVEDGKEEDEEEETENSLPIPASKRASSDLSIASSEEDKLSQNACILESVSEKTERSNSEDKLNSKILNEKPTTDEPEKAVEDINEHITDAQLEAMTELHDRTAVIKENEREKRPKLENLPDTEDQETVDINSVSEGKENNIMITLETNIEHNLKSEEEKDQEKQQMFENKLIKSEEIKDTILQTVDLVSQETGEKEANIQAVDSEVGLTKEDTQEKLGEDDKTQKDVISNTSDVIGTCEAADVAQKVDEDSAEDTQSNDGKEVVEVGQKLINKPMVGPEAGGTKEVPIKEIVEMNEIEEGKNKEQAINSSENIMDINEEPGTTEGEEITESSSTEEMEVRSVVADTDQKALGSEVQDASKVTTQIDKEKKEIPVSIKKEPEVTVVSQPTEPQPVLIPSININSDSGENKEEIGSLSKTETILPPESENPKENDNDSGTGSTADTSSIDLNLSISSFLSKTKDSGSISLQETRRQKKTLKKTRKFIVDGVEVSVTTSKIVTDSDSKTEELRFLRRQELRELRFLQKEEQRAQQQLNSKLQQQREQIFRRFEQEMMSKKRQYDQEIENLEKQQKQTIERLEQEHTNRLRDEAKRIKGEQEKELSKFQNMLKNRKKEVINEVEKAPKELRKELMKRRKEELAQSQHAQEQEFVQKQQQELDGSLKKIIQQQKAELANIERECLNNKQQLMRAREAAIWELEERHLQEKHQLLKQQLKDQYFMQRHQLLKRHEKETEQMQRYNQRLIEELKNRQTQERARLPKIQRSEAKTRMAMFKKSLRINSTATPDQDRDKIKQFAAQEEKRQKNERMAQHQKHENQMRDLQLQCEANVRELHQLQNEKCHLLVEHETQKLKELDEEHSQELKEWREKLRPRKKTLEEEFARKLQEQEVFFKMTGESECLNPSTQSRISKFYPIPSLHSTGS
T4 sequence (O14936 whole entry): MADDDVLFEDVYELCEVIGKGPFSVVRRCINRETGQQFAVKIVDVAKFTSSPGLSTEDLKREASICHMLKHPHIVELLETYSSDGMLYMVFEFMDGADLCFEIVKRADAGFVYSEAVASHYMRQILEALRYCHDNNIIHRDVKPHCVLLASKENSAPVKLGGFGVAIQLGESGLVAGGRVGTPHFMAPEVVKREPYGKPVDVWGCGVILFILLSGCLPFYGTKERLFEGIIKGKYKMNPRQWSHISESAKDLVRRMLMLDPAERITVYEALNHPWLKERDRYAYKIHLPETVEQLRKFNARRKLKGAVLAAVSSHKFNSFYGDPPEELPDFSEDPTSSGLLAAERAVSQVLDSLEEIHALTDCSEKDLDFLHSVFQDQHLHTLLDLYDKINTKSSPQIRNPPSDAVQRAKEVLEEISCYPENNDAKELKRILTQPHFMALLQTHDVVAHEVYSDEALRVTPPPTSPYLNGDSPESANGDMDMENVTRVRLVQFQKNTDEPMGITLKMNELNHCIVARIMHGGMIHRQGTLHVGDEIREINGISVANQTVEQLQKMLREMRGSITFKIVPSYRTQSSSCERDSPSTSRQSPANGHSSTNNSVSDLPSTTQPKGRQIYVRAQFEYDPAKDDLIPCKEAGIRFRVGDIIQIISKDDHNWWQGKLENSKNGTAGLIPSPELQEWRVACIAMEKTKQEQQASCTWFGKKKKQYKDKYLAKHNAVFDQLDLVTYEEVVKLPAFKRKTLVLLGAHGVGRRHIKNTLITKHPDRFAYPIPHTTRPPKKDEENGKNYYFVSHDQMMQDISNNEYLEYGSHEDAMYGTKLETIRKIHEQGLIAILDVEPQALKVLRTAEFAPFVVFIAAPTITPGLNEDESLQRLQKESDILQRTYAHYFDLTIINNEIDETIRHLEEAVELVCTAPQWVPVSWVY
T15 sequence (P49336 whole entry): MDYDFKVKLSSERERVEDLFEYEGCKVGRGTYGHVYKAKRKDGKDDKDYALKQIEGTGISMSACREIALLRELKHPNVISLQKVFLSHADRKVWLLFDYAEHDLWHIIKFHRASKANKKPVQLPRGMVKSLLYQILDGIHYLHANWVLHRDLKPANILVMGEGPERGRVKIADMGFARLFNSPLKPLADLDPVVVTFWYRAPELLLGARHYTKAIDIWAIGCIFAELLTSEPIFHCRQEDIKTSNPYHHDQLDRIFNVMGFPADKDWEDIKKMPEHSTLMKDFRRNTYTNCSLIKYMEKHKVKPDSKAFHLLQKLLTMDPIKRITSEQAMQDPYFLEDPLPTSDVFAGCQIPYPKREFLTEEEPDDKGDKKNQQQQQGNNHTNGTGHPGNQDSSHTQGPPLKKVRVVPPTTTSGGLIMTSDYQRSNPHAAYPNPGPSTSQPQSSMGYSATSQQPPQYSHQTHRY
T2 sequence (Q13555 whole entry): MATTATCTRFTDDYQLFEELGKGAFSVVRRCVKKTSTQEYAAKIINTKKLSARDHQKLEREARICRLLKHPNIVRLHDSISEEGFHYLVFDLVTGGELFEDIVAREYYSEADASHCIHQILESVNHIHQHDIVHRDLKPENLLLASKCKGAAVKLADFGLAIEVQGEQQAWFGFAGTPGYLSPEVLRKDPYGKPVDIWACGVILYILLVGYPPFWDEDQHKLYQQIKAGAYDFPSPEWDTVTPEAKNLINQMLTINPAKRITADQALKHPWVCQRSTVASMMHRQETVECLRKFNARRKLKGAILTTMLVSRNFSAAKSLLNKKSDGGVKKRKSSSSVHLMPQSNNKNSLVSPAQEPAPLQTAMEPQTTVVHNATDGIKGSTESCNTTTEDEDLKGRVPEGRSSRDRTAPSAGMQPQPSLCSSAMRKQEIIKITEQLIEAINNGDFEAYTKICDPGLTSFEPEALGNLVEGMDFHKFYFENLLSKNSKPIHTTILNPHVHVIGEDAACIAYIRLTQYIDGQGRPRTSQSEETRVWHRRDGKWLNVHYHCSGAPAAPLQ

Cc1cccc(-c2cnc3occ(-c4ccc(C(=O)O)c(C5CCCC5)c4)c3c2)c1 [SGC-CAMKK2-1 (YL-36)]
remaining binding at 1 µM [1]: 100% | remaining binding at 1 µM [2]: 100% | remaining binding at 1 µM [3]: 100% | remaining binding at 1 µM [4]: 79% | remaining binding at 1 µM [5]: 43% | remaining binding at 1 µM [6]: 93% | remaining binding at 1 µM [7]: 100% | remaining binding at 1 µM [8]: 69% | remaining binding at 1 µM [9]: 100% | remaining binding at 1 µM [10]: 100% | remaining binding at 1 µM [11]: 100% | remaining binding at 1 µM [12]: 82% | remaining binding at 1 µM [13]: 100% | remaining binding at 1 µM [14]: 100% | remaining binding at 1 µM [15]: 72% | remaining binding at 1 µM [16]: 100% | remaining binding at 1 µM [17]: 100% | remaining binding at 1 µM [18]: 73% | remaining binding at 1 µM [19]: 61%

O=C(O)c1ccc(-c2coc3ncc(-c4ccccc4)cc23)cc1Cl [SGC-CAMKK2-1N (UNC-YL-83)]
remaining binding at 1 µM [20]: 56% | remaining binding at 1 µM [21]: 81% | remaining binding at 1 µM [22]: 77% | remaining binding at 1 µM [23]: 100% | remaining binding at 1 µM [24]: 79% | remaining binding at 1 µM [25]: 100% | remaining binding at 1 µM [26]: 80% | remaining binding at 1 µM [27]: 100% | remaining binding at 1 µM [28]: 53% | remaining binding at 1 µM [29]: 100% | remaining binding at 1 µM [30]: 66% | remaining binding at 1 µM [31]: 79% | remaining binding at 1 µM [32]: 93% | remaining binding at 1 µM [33]: 61%

From article PMC9856672, “SGC-CAMKK2-1: A Chemical Probe for CAMKK2” (Cells, 2023)
